# Measured values published in paper PMC9856672, “SGC-CAMKK2-1: A Chemical Probe for CAMKK2” (Cells, 2023).
# Columns and labels:
# [1] = molecular target: T1, PKN2 (Homo sapiens, UniProt Q16513); assay: KINOMEscan at 1 μM, PKN2; type: binding; conditions: 1000 nM, read-out: Percent Control
# T1 construct: purchased Eurofins DiscoverX KINOMEscan
# Source text: (§1) Supplement cells-12-00287-s001.zip/File S2. KinomeScan data for the CAMKK2 probe and negative control.xlsx, sheet "SGC-CAMKK2-1N" | column: Percent Control
# [2] = molecular target: T2, HIPK4 (Homo sapiens, UniProt Q8NE63); assay: KINOMEscan at 1 μM, HIPK4; type: binding; conditions: 1000 nM, read-out: Percent Control
# T2 construct: purchased Eurofins DiscoverX KINOMEscan
# Source text: as §1
# [3] = molecular target: T3, DDR1 (Homo sapiens, UniProt Q08345); assay: KINOMEscan at 1 μM, DDR1; type: binding; conditions: 1000 nM, read-out: Percent Control
# T3 construct: purchased Eurofins DiscoverX KINOMEscan
# Source text: as §1
# [4] = molecular target: T4, BRAF (Homo sapiens, UniProt P15056); assay: KINOMEscan at 1 μM, BRAF; type: binding; conditions: 1000 nM, read-out: Percent Control
# T4 construct: purchased Eurofins DiscoverX KINOMEscan
# Source text: as §1
# [5] = molecular target: T5, RET (Homo sapiens, UniProt P07949); assay: KINOMEscan binding assay at 1 μM, RET; conditions: Compound Concentration 1000 nM; read-out: Percent Control
# T5 construct: purchased Eurofins DiscoverX KINOMEscan
# Source text: as §1
# [6] = molecular target: T6, TXK (Homo sapiens, UniProt P42681); assay: KINOMEscan at 1 μM, TXK; type: binding; conditions: 1000 nM, read-out: Percent Control
# T6 construct: purchased Eurofins DiscoverX KINOMEscan
# Source text: as §1
# [7] = molecular target: T7, PIK3CD (Homo sapiens, UniProt O00329); assay: KINOMEscan binding assay at 1 μM, PIK3CD; conditions: Compound Concentration 1000 nM; read-out: Percent Control
# T7 construct: purchased Eurofins DiscoverX KINOMEscan
# Source text: as §1
# [8] = molecular target: T8, AKT3 (Homo sapiens, UniProt Q9Y243); assay: KINOMEscan at 1 μM, AKT3; type: binding; conditions: 1000 nM, read-out: Percent Control
# T8 construct: purchased Eurofins DiscoverX KINOMEscan
# Source text: as §1
# [9] = molecular target: T9, AKT1 (Homo sapiens, UniProt P31749); assay: KINOMEscan at 1 μM, AKT1; type: binding; conditions: 1000 nM, read-out: Percent Control
# T9 construct: purchased Eurofins DiscoverX KINOMEscan
# Source text: as §1
# [10] = molecular target: T10, EGFR (Homo sapiens, UniProt P00533); assay: KINOMEscan at 1 μM, EGFR; type: binding; conditions: 1000 nM, read-out: Percent Control
# T10 construct: purchased Eurofins DiscoverX KINOMEscan
# Source text: as §1
# [11] = molecular target: T11, MYLK (Homo sapiens, UniProt Q15746); assay: KINOMEscan at 1 μM, MYLK; type: binding; conditions: 1000 nM, read-out: Percent Control
# T11 construct: purchased Eurofins DiscoverX KINOMEscan
# Source text: as §1
# [12] = molecular target: T12, AURKC (Homo sapiens, UniProt Q9UQB9); assay: KINOMEscan at 1 μM, AURKC; type: binding; conditions: 1000 nM, read-out: Percent Control
# T12 construct: purchased Eurofins DiscoverX KINOMEscan
# Source text: as §1
# [13] = molecular target: T13, TEC (Homo sapiens, UniProt P42680); assay: KINOMEscan at 1 μM, TEC; type: binding; conditions: 1000 nM, read-out: Percent Control
# T13 construct: purchased Eurofins DiscoverX KINOMEscan
# Source text: as §1
# [14] = molecular target: T14, EPHB2 (Homo sapiens, UniProt P29323); assay: KINOMEscan binding assay at 1 μM, EPHB2; conditions: Compound Concentration 1000 nM; read-out: Percent Control
# T14 construct: purchased Eurofins DiscoverX KINOMEscan
# Source text: as §1
# [15] = molecular target: T15, EPHA7 (Homo sapiens, UniProt Q15375); assay: KINOMEscan binding assay at 1 μM, EPHA7; conditions: Compound Concentration 1000 nM; read-out: Percent Control
# T15 construct: purchased Eurofins DiscoverX KINOMEscan
# Source text: as §1
# [16] = molecular target: T16, FGFR3(G697C) (Homo sapiens, UniProt P22607, G697C); assay: KINOMEscan at 1 μM, FGFR3(G697C); type: binding; conditions: 1000 nM, read-out: Percent Control
# T16 construct: purchased Eurofins DiscoverX KINOMEscan
# Source text: as §1
# [17] = molecular target: T17, PIK3CA(M1043I) (Homo sapiens, UniProt P42336, M1043I); assay: KINOMEscan binding assay at 1 μM, PIK3CA(M1043I); conditions: Compound Concentration 1000 nM; read-out: Percent Control
# T17 construct: purchased Eurofins DiscoverX KINOMEscan
# Source text: as §1
# [18] = molecular target: T18, CAMK4 (Homo sapiens, UniProt Q16566); assay: KINOMEscan 1 μM, CAMK4; type: binding; conditions: 1000 nM; Entrez CAMK4; read-out: Percent Control
# T18 construct: purchased Eurofins DiscoverX KINOMEscan
# Source text: (§2) Supplement cells-12-00287-s001.zip/File S2. KinomeScan data for the CAMKK2 probe and negative control.xlsx, sheet "SGC-CAMKK2-1" | column: Percent Control
# [19] = molecular target: T19, PCTK1 (Homo sapiens, UniProt Q00536); assay: DiscoverX KINOMEscan binding assay at 1 μM, PCTK1; conditions: PCTK1 (CDK16); Compound Concentration 1000 nM; read-out: Percent Control
# T19 construct: purchased Eurofins DiscoverX KINOMEscan
# Source text: as §2
# [20] = molecular target: T20, CLK1 (Homo sapiens, UniProt P49759); assay: KINOMEscan 1 μM, CLK1; type: binding; conditions: 1000 nM; Entrez CLK1; read-out: Percent Control
# T20 construct: purchased Eurofins DiscoverX KINOMEscan
# Source text: as §2
# [21] = molecular target: T21, CAMK2D (Homo sapiens, UniProt Q13557); assay: KINOMEscan 1 μM, CAMK2D; type: binding; conditions: 1000 nM; Entrez CAMK2D; read-out: Percent Control
# T21 construct: purchased Eurofins DiscoverX KINOMEscan
# Source text: as §2
# [22] = molecular target: T22, IRAK4 (Homo sapiens, UniProt Q9NWZ3); assay: KINOMEscan 1 μM, IRAK4; type: binding; conditions: 1000 nM; Entrez IRAK4; read-out: Percent Control
# T22 construct: purchased Eurofins DiscoverX KINOMEscan
# Source text: as §2
# [23] = molecular target: T23, NEK3 (Homo sapiens, UniProt P51956); assay: KINOMEscan 1 μM, NEK3; type: binding; conditions: 1000 nM; Entrez NEK3; read-out: Percent Control
# T23 construct: purchased Eurofins DiscoverX KINOMEscan
# Source text: as §2
# [24] = molecular target: T24, AMPK-alpha1 (Homo sapiens, UniProt Q13131); assay: KINOMEscan 1 μM, AMPK-alpha1; type: binding; conditions: 1000 nM; Entrez PRKAA1; read-out: Percent Control
# T24 construct: purchased Eurofins DiscoverX KINOMEscan
# Source text: as §2
# [25] = molecular target: T25, WNK3 (Homo sapiens, UniProt Q9BYP7); assay: KINOMEscan 1 μM, WNK3; type: binding; conditions: 1000 nM; Entrez WNK3; read-out: Percent Control
# T25 construct: purchased Eurofins DiscoverX KINOMEscan
# Source text: as §2
# [26] = molecular target: T26, MEK6 (Homo sapiens, UniProt P52564); assay: KINOMEscan 1 μM, MEK6; type: binding; conditions: 1000 nM; Entrez MAP2K6; read-out: Percent Control
# T26 construct: purchased Eurofins DiscoverX KINOMEscan
# Source text: as §2
# [27] = molecular target: T27, PIK3C2B (Homo sapiens, UniProt O00750); assay: KINOMEscan 1 μM, PIK3C2B; type: binding; conditions: 1000 nM; Entrez PIK3C2B; read-out: Percent Control
# T27 construct: purchased Eurofins DiscoverX KINOMEscan
# Source text: as §2
# [28] = molecular target: T28, PKAC-beta (Homo sapiens, UniProt P22694); assay: DiscoverX KINOMEscan binding assay at 1 μM, PKAC-beta; conditions: PKAC-beta (PRKACB); Compound Concentration 1000 nM; read-out: Percent Control
# T28 construct: purchased Eurofins DiscoverX KINOMEscan
# Source text: as §2
# [29] = molecular target: T29, RIOK1 (Homo sapiens, UniProt Q9BRS2); assay: KINOMEscan 1 μM, RIOK1; type: binding; conditions: 1000 nM; Entrez RIOK1; read-out: Percent Control
# T29 construct: purchased Eurofins DiscoverX KINOMEscan
# Source text: as §2
# [30] = molecular target: T2, HIPK4; assay: KINOMEscan 1 μM, HIPK4; type: binding; conditions: 1000 nM; Entrez HIPK4; read-out: Percent Control
# Source text: as §2
# [31] = molecular target: T30, DCAMKL3 (Homo sapiens, UniProt Q9C098); assay: KINOMEscan 1 μM, DCAMKL3; type: binding; conditions: 1000 nM; Entrez DCLK3; read-out: Percent Control
# T30 construct: purchased Eurofins DiscoverX KINOMEscan
# Source text: as §2
# [32] = molecular target: T31, TRKA (Homo sapiens, UniProt P04629); assay: DiscoverX KINOMEscan binding assay at 1 μM, TRKA; conditions: TRKA (NTRK1); Compound Concentration 1000 nM; read-out: Percent Control
# T31 construct: purchased Eurofins DiscoverX KINOMEscan
# Source text: as §2
# [33] = molecular target: T32, CDC2L2 (Homo sapiens, UniProt Q9UQ88); assay: KINOMEscan 1 μM, CDC2L2; type: binding; conditions: 1000 nM; Entrez CDC2L2; read-out: Percent Control
# T32 construct: purchased Eurofins DiscoverX KINOMEscan
# Source text: as §2
# [34] = molecular target: T33, LRRK2 (Homo sapiens, UniProt Q5S007); assay: KINOMEscan 1 μM, LRRK2; type: binding; conditions: 1000 nM; Entrez LRRK2; read-out: Percent Control
# T33 construct: purchased Eurofins DiscoverX KINOMEscan
# Source text: as §2
# T2 sequence (Q8NE63 whole entry): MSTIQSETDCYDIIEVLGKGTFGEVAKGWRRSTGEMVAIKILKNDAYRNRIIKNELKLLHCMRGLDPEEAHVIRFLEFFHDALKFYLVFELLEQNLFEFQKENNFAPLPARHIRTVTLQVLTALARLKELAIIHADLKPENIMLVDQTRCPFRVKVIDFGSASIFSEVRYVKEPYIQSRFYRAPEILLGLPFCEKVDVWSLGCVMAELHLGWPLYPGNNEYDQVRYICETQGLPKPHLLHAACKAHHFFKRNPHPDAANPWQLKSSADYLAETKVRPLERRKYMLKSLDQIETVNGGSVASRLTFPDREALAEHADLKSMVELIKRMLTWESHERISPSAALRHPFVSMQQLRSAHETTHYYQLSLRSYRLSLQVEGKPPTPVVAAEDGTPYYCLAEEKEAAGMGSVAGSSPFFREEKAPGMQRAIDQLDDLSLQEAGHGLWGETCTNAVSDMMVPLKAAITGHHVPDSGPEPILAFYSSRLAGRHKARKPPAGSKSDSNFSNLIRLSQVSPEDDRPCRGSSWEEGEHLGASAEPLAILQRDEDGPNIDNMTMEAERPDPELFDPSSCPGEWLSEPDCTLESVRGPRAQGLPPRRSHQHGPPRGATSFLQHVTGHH
# T12 sequence (Q9UQB9 whole entry): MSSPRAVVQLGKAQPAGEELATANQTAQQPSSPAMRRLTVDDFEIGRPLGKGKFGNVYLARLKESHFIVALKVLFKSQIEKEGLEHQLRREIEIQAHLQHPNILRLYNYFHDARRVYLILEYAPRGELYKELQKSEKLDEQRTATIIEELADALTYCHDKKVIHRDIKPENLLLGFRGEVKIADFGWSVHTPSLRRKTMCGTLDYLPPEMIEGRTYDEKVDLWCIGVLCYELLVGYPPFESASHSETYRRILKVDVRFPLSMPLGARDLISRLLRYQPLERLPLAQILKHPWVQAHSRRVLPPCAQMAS
# T10 sequence (P00533 25-1210): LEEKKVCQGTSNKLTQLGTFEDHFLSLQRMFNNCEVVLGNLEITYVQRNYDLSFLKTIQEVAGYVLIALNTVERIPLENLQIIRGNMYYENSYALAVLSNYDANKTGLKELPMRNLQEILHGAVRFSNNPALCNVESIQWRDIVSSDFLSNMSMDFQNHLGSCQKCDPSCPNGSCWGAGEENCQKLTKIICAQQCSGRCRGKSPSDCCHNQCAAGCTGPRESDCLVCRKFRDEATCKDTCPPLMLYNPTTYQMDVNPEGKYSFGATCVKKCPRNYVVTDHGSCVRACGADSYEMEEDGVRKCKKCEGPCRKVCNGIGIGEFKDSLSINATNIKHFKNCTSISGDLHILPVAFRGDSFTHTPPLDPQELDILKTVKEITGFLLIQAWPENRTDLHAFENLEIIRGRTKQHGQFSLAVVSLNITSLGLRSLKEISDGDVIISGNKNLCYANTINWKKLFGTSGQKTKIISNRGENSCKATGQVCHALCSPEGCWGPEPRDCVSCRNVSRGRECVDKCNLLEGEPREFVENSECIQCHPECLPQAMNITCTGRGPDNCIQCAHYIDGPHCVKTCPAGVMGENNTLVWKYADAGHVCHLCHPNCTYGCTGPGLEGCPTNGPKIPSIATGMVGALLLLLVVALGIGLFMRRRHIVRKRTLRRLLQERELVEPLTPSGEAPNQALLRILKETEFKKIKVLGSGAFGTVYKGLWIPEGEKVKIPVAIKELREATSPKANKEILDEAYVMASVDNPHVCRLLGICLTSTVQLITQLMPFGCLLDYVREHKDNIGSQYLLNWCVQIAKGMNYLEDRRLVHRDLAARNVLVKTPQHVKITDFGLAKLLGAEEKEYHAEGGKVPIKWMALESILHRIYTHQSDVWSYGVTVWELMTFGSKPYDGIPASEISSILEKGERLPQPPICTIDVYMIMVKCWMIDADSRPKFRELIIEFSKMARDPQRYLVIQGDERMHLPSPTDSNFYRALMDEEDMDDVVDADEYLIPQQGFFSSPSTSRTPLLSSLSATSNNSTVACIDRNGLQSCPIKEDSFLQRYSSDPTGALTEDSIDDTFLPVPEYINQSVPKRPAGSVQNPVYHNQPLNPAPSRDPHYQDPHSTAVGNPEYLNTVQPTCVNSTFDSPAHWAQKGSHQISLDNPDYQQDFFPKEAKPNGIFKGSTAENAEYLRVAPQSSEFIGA
# T26 sequence (P52564 whole entry): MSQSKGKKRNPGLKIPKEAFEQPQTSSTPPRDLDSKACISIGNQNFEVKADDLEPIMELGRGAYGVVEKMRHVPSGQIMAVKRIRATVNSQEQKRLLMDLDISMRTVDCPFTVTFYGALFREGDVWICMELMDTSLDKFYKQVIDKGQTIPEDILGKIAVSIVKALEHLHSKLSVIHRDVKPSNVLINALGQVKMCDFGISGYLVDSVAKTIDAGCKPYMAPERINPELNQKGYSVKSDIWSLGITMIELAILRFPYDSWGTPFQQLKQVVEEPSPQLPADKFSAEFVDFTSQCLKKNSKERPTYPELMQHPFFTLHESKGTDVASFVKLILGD
# T8 sequence (Q9Y243 whole entry): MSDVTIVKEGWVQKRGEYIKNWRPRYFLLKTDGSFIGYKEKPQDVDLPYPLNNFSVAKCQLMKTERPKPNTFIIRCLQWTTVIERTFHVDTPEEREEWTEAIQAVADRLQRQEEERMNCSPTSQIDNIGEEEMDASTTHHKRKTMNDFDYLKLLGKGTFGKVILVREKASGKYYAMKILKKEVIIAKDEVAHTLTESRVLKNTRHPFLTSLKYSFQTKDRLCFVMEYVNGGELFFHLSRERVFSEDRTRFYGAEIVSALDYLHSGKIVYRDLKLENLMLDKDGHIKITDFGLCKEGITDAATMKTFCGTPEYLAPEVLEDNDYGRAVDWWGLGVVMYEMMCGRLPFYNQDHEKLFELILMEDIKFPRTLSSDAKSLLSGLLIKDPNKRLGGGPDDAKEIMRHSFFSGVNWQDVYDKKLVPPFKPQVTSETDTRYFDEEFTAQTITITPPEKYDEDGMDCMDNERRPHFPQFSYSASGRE
# T21 sequence (Q13557 whole entry): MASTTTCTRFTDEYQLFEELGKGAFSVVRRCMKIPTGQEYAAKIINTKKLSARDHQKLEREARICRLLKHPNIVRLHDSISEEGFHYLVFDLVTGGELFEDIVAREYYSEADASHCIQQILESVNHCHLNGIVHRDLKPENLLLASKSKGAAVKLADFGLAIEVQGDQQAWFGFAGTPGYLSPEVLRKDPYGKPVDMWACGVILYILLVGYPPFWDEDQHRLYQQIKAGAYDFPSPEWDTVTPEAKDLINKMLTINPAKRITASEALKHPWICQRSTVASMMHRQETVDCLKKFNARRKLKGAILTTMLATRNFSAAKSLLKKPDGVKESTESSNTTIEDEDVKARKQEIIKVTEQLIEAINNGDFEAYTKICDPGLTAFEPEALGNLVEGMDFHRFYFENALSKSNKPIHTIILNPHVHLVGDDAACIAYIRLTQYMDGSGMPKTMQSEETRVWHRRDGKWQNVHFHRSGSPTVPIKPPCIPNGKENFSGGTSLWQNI
# T24 sequence (Q13131 whole entry): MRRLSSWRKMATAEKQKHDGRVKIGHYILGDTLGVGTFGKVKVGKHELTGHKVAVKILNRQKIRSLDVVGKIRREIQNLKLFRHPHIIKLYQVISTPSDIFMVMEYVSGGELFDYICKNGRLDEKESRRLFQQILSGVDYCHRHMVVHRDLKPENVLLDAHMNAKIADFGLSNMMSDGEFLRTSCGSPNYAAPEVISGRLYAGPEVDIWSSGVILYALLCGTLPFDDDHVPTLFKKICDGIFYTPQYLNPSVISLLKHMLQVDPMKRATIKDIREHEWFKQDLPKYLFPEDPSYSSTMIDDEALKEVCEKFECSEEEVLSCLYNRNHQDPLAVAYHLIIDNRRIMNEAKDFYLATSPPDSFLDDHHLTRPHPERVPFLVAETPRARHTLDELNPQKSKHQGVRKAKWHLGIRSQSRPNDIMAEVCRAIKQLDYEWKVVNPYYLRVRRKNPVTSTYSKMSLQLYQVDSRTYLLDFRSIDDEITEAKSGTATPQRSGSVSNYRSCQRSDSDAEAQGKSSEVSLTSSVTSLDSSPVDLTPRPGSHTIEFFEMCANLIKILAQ
# T9 sequence (P31749 whole entry): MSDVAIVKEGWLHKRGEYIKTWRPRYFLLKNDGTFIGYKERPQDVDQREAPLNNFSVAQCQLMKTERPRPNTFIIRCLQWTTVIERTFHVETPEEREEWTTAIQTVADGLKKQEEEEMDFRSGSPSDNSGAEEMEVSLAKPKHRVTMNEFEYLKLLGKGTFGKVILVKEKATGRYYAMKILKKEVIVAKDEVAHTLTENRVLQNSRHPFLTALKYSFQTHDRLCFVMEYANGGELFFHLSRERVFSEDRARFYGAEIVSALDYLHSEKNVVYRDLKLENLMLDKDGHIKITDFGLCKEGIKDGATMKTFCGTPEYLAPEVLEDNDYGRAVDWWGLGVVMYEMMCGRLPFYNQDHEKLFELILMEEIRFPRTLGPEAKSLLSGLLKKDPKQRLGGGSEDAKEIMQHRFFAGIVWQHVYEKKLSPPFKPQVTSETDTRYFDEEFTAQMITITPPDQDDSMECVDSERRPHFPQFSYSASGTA
# T22 sequence (Q9NWZ3 whole entry): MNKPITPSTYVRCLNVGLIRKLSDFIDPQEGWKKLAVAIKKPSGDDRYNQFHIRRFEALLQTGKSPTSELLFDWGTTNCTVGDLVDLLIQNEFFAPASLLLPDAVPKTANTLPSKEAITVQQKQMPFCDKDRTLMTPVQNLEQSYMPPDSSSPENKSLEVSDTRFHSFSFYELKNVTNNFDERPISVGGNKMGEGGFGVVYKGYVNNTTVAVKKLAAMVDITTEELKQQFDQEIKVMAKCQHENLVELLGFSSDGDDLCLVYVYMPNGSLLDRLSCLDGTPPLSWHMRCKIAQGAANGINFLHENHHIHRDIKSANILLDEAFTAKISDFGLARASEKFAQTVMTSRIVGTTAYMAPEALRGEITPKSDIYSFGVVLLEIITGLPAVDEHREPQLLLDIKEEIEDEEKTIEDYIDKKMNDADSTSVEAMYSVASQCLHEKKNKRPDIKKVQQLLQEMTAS
structure (smiles),measurement,setting,value
O=C(O)c1ccc(-c2coc3ncc(-c4ccccc4)cc23)cc1Cl [SGC-CAMKK2-1N (UNC-YL-83)],remaining binding at 1 µM,[1],83%
same,remaining binding at 1 µM,[2],89%
same,remaining binding at 1 µM,[3],93%
same,remaining binding at 1 µM,[4],84%
same,remaining binding at 1 µM,[5],100%
same,remaining binding at 1 µM,[6],53%
same,remaining binding at 1 µM,[7],100%
same,remaining binding at 1 µM,[8],95%
same,remaining binding at 1 µM,[9],100%
same,remaining binding at 1 µM,[10],100%
same,remaining binding at 1 µM,[11],69%
same,remaining binding at 1 µM,[12],90%
same,remaining binding at 1 µM,[13],96%
same,remaining binding at 1 µM,[14],100%
same,remaining binding at 1 µM,[15],100%
same,remaining binding at 1 µM,[16],65%
same,remaining binding at 1 µM,[17],100%
Cc1cccc(-c2cnc3occ(-c4ccc(C(=O)O)c(C5CCCC5)c4)c3c2)c1 [SGC-CAMKK2-1 (YL-36)],remaining binding at 1 µM,[18],100%
same,remaining binding at 1 µM,[19],100%
same,remaining binding at 1 µM,[20],100%
same,remaining binding at 1 µM,[21],98%
same,remaining binding at 1 µM,[22],100%
same,remaining binding at 1 µM,[23],100%
same,remaining binding at 1 µM,[24],95%
same,remaining binding at 1 µM,[25],97%
same,remaining binding at 1 µM,[26],100%
same,remaining binding at 1 µM,[27],87%
same,remaining binding at 1 µM,[28],100%
same,remaining binding at 1 µM,[29],92%
same,remaining binding at 1 µM,[30],100%
same,remaining binding at 1 µM,[31],100%
same,remaining binding at 1 µM,[32],100%
same,remaining binding at 1 µM,[33],84%
same,remaining binding at 1 µM,[34],70%
